Reference: PMC2680961, “Homologous desensitization of signalling by the alpha (α) isoform of the human thromboxane A2 receptor: A specific role for nitric oxide signalling” (Biochimica et Biophysica Acta, 2007)

Target: T1, TPα (Homo sapiens, UniProt P21731)
T1 construct: expressed in transfected cells
T1 sequence (P21731 1-343): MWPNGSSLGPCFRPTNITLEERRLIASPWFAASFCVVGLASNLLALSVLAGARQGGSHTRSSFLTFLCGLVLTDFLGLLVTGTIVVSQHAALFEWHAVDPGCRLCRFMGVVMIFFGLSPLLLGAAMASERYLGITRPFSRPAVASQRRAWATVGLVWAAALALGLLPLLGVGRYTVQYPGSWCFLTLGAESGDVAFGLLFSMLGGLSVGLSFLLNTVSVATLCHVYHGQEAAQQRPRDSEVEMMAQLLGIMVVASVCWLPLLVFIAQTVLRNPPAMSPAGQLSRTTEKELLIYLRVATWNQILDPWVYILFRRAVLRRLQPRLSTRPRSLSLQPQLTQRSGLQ
Assay: IP3 generation, HEK.TPα cells
Type: cell-based
Conditions: 1 μM U46619 2 min, washout, restimulation at 60 min
Protocol: Intracellular IP3 levels were measured as previously described [[33,43]]. Briefly, cells were harvested by scraping, washed twice in ice-cold PBS and resuspended at approximately 2 × 10^6 cells/200 μl in HEPES-buffered saline (HBS; […], 4.7 mM KCl, 2.2 mM CaCl2, 1.2 mM KH2PO4, 11 mM glucose, 15 mM HEPES–NaOH, pH 7.4), 10 mM LiCl (Walsh et al., 2000). […] Thereafter, cells were stimulated with 1 μM U46619 at 37 °C for 2 min. To assess agonist-mediated homologous desensitization, cells (2 × 10^6 cells/200 μl) were stimulated with 1 μM U46619 at 37 °C for 2 min (Primary stimulation); thereafter, cells were collected by centrifugation (900×g, 5 min); were washed once in 200 μl HBS, 10 mM LiCl and finally resuspended in 200 μl HBS, 10 mM LiCl and were left to recover for 60 min; thereafter, cells were re-stimulated with 1 μM U46619 at 37 °C for 2 min (secondary stimulation). All ligands and […] were pre-diluted in HBS such that 50 μl added to 200 μl of cell suspension in HBS gave the desired final concentration. To determine basal IP3 levels, an equivalent volume (50 μl) of the vehicle HBS was added instead of ligand. The level of IP3 produced was quantified by radio competition assay essentially as described. […]

CCCCC[C@H](O)/C=C/[C@@H]1[C@@H](C/C=C\CCCC(=O)O)[C@H]2CO[C@@H]1C2 [U46619]
IP3 generation following secondary restimulation after U46619 pre-incubation: almost completely inhibited IP3 generation
